Experimental findings from patent US11091501B2, “Heterocyclic compounds as RSV inhibitors” (Enanta Pharmaceuticals, Inc., priority 2017, dated 2021) are described below.

A value given as a limit tells only on which side of the number the result lay.

The subject of this assay is Human RSV-A (“Long” strain). Description: RSV in vitro cytoprotection assay (CPE, ATPlite) in HEp-2 cells. The format is cell-based. The following applies: human respiratory syncytial virus, 96 h; HEp-2 cells, 4-day incubation, ATPlite readout; read-out: Human RSV-A (“Long” strain) EC50. The text has this: RSV is a single stranded negative sense RNA virus that causes respiratory tract infections which can be dangerous to infants, the elderly, and immunosuppressed individuals. Currently there is no vaccine, and therapeutic options are both costly and of limited effectiveness. These approved treatments are Ribavirin, and Palivizumab/Synagis (a monoclonal antibody). RSV has two genotypes, A and B, which differ primarily in the structure of the virus' surface “G” attachment protein. Our current primary screen focuses on RSV-A and uses an in vitro cytoprotection assay where compounds are added in 2-fold dilutions to cells which are then subjected to fully replicative viral particles. Cell viability is measured several days later along with separate measurements of compound cytotoxicity. This report focuses on the results of our most recent screening of compounds.
HEp-2 cells, (originally derived from tumors grown in irradiated-cortisonised weanling rats that had been injected with epidermoid carcinoma tissue from a person's larynx, but later found to be indistinguishable from HeLa cells by PCR DNA analysis), were used for the culturing of genotype A, “Long” strain RSV. Flasks were inoculated with RSV and viral stocks were collected once cytopathic effect (CPE) was greater than 90%. Viral stocks in 25% sucrose media were snap frozen using liquid nitrogen to increase viral stability. Viral stock titers were quantified by tissue culture infectious dose 50% (TCID50) using 8,000 cells per well and 3-fold viral dilutions across a 96-well plate, cultured for 4 days.
Following extensive parameter testing, the final assay is run as follows: HEp-2 cells are seeded into the inner 60 wells of a 96-well plate at 8,000 cells per well in a volume of 50 μL using Growth Media (DMEM without phenol red, 1% L-Glut, 1% Penn/Strep, 1% nonessential amino acids, 10% FBS). 2-Fold serial dilutions of control and test compounds are added to the wells in duplicate in a total volume of 25 μL. Viral stock is then added to the wells in a volume of […] the total volume of each well to 100 μL. Each 96-well plate has a control column of 6 wells with cells and virus but no compound (negative control, max CPE), a column with cells but no compound or virus (positive control, minimum CPE), and a column with no cells or virus or compound (background plate/reagent control). The control wells with cells but no virus are given an additional 25 uL of growth media containing an equal quantity of sucrose as those wells receiving the viral stock in order to keep consistent in media and volume conditions. The outer wells of the plate are filled with 125 μL of growth media to act as a thermal and evaporative moat around the test wells. Following a 4-day incubation period, the plates are read using ATPlite (50 uL added per well), which quantifies the amount of ATP (a measure of cell health) present in each well. Assay plates are read using the Envision luminometer. In parallel, cytotoxicity is examined on an additional 96-well plate treated in an identical manner, but substituting the 25 μL of viral stock for 25 μL of growth media. […] EC50 ranges are as follows: A<0.01 μM; B 0.01-0.05 μM; C>0.05 μM.
As to `Cc1cnc(N2CC3(CCOCC3)C2)c(C(=O)Nc2ccc(C(=O)N3CCc4cc(-c5ccn[nH]5)sc4-c4ccc(F)cc43)cc2)c1` [Example 46], the EC50 was in the range of 10 to 50 nM.

With `O=C(Nc1c(F)cccc1F)c1cc2c(s1)-c1ccc(F)cc1N(C(=O)c1ccc(NC(=O)c3cccnc3N3CC4CCCC4C3)cc1)CC2` (stereo not drawn) [Example 47], the EC50 was 10 to 50 nM.

In the case of `O=C(Nc1c(F)cccc1F)c1cc2c(s1)-c1ccc(F)cc1N(C(=O)c1ccc(NC(=O)c3cccnc3N3C[C@@H]4C[C@H]3CO4)cc1)CC2` [Example 48], the EC50 lay in the range of 10 to 50 nM.

For `CC1(C)CCN(c2ncccc2C(=O)Nc2ccc(C(=O)N3CCc4cc(C(=O)Nc5c(F)cccc5F)sc4-c4ccc(F)cc43)cc2)CCS1(=O)=O` [Example 49], the EC50 was more than 50 nM.

Regarding `O=C(Nc1c(F)cccc1F)c1cc2c(s1)-c1ccc(F)cc1N(C(=O)c1ccc(NC(=O)c3cccnc3N3CC4CCC(C3)O4)cc1)CC2` [Example 50], the EC50 is 10 to 50 nM.

On to `O=C(Nc1c(F)cccc1F)c1cc2c(s1)-c1ccc(F)cc1N(C(=O)c1ccc(NC(=O)c3cccnc3N3CCCOCC3)cc1)CC2` [Example 51], for which the half-maximal effective concentration (EC50) was more than 50 nM.

Regarding `O=C(Nc1c(F)cccc1F)c1cc2c(s1)-c1ccc(F)cc1N(C(=O)c1ccc(NC(=O)c3cccnc3N3CCCC(F)(F)CC3)cc1)CC2` [Example 52], the EC50 was more than 50 nM.

For the molecule `O=C(Nc1c(F)cccc1F)c1cc2c(s1)-c1ccc(F)cc1N(C(=O)c1ccc(NC(=O)c3cccnc3N3CCOc4ccccc4C3)cc1)CC2` [Example 53], the EC50 is more than 50 nM.

Turning to `CCOCCNc1ncccc1C(=O)Nc1ccc(C(=O)N2CCc3cc(C(=O)Nc4c(F)cccc4F)sc3-c3ccc(F)cc32)cc1` [Example 54], the EC50 is more than 50 nM.

As for `CCOCCN(C)c1ncccc1C(=O)Nc1ccc(C(=O)N2CCc3cc(C(=O)Nc4c(F)cccc4F)sc3-c3ccc(F)cc32)cc1` [Example 55], the EC50 was more than 50 nM.

For the molecule `Cc1cc(CNc2ncccc2C(=O)Nc2ccc(C(=O)N3CCc4cc(C(=O)Nc5c(F)cccc5F)sc4-c4ccc(F)cc43)cc2)on1` [Example 56], the EC50 is more than 50 nM.

Take `CCS(=O)(=O)CCN(C)c1ncccc1C(=O)Nc1ccc(C(=O)N2CCc3cc(C(=O)Nc4c(F)cccc4F)sc3-c3ccc(F)cc32)cc1` [Example 57]: the EC50 was more than 50 nM.

For the molecule `CC1(CNc2ncccc2C(=O)Nc2ccc(C(=O)N3CCc4cc(C(=O)Nc5c(F)cccc5F)sc4-c4ccc(F)cc43)cc2)CCCO1` (stereo not drawn) [Example 58], the EC50 is more than 50 nM.

As for `CCS(=O)(=O)CCNc1ncccc1C(=O)Nc1ccc(C(=O)N2CCc3cc(C(=O)Nc4c(F)cccc4F)sc3-c3ccc(F)cc32)cc1` [Example 59], the EC50 is more than 50 nM.

Turning to `O=C(Nc1c(F)cccc1F)c1cc2c(s1)-c1ccc(F)cc1N(C(=O)c1ccc(NC(=O)c3cccnc3C3=CCOCC3)cc1)CC2` [Example 60], the EC50 is more than 50 nM.

As to `O=C(Nc1c(F)cccc1F)c1cc2c(s1)-c1ccc(F)cc1N(C(=O)c1ccc(NC(=O)c3cccnc3C3CCOCC3)cc1)CC2` [Example 61], the EC50 was in the range of 10 to 50 nM.

In the case of `O=C(Nc1c(F)cccc1F)c1cc2c(s1)-c1ccc(F)cc1N(C(=O)c1ccc(NC(=O)c3cccnc3-c3ccc(N4CCOCC4)cc3)cc1)CC2` [Example 62], the EC50 is more than 50 nM.

Consider `O=C(Nc1c(F)cccc1F)c1cc2c(s1)-c1ccc(F)cc1N(C(=O)c1ccc(NC(=O)c3cccnc3-c3ccncc3)cc1)CC2` [Example 63], for which the EC50 was more than 50 nM.

Take `O=C(Nc1c(F)cccc1F)c1cc2c(s1)-c1ccc(F)cc1N(C(=O)c1ccc(NC(=O)c3cccnc3-c3c[nH]c4ccncc34)cc1)CC2` [Example 64]: the EC50 is more than 50 nM.

As to `O=C(Nc1c(F)cccc1F)c1cc2c(s1)-c1ccc(F)cc1N(C(=O)c1ccc(NC(=O)c3cc4c(nc3N3CC5(CCOCC5)C3)CCC4)cc1)CC2` [Example 65], the EC50 was less than 10 nM.

For the molecule `O=C(Nc1c(F)cc(F)cc1Cl)c1cc2c(s1)-c1ccc(F)cc1N(C(=O)c1ccc(NC(=O)c3cc4c(nc3N3CC5(CCOCC5)C3)CCC4)cc1)CC2` [Example 66], the EC50 is less than 10 nM.

As for `O=C(Nc1c(F)cc(F)cc1F)c1cc2c(s1)-c1ccc(F)cc1N(C(=O)c1ccc(NC(=O)c3cc4c(nc3N3CC5(CCOCC5)C3)CCC4)cc1)CC2` [Example 67], the EC50 was less than 10 nM.

As for `O=C(Nc1ccc(C(=O)N2CCc3cc(-c4nc5ccccc5[nH]4)sc3-c3ccc(F)cc32)cc1)c1cc2c(nc1N1CC3(CCOCC3)C1)CCC2` [Example 68], the EC50 is 10 to 50 nM.

Turning to `O=C(Nc1c(F)cccc1F)c1cc2c(s1)-c1c(ccc(F)c1F)N(C(=O)c1ccc(NC(=O)c3cccnc3N3CC4(CCOCC4)C3)cc1)CC2` [Example 69], the half-maximal effective concentration (EC50) lay in the range of 10 to 50 nM.

As to `O=C(Nc1ccc(C(=O)N2CCc3cc(-c4nc5ccccc5[nH]4)sc3-c3c2ccc(F)c3F)cc1)c1cccnc1N1CC2(CCOCC2)C1` [Example 70], the EC50 was in the range of 10 to 50 nM.

Take `O=C(Nc1c(F)cc(F)cc1F)c1cc2c(s1)-c1cc(F)c(F)cc1N(C(=O)c1ccc(NC(=O)c3cc(F)cnc3N3CC4(CCOCC4)C3)cc1)CC2` [Example 71]: the EC50 is 10 to 50 nM.

With `Cc1cccc(F)c1NC(=O)c1cc2c(s1)-c1cc(F)c(F)cc1N(C(=O)c1ccc(NC(=O)c3cc(F)cnc3N3CC4(CCOCC4)C3)cc1)CC2` [Example 72], the EC50 was in the range of 10 to 50 nM.

As for `O=C(Nc1c(F)cccc1F)c1cc2c(s1)-c1cc(F)c(F)cc1N(C(=O)c1ccc(NC(=O)c3cc(F)cnc3N3CC4(CCOCC4)C3)cc1)CC2` [Example 73], the EC50 lay in the range of 10 to 50 nM.

Take `O=C(Nc1c(F)cccc1Cl)c1cc2c(s1)-c1cc(F)c(F)cc1N(C(=O)c1ccc(NC(=O)c3cc(F)cnc3N3CC4(CCOCC4)C3)cc1)CC2` [Example 74]: the EC50 was 10 to 50 nM.

Turning to `O=C(Nc1c(F)cccc1C(F)(F)F)c1cc2c(s1)-c1cc(F)c(F)cc1N(C(=O)c1ccc(NC(=O)c3cc(F)cnc3N3CC4(CCOCC4)C3)cc1)CC2` [Example 75], the EC50 lay within 10 to 50 nM.

For `O=C(Nc1c(F)cccc1F)c1cc2c(s1)-c1cc(F)c(F)cc1N(C(=O)c1ccc(NC(=O)c3cccnc3N3CC4(CCOCC4)C3)cc1)CC2` [Example 76], the EC50 was less than 10 nM.

Consider `O=C(Nc1c(F)cccc1F)c1cc2c(s1)-c1c(cc(F)c(F)c1F)N(C(=O)c1ccc(NC(=O)c3cccnc3N3CC4(CCOCC4)C3)cc1)CC2` [Example 78], for which the EC50 was less than 10 nM.

For `O=C(Nc1c(F)cc(F)cc1F)c1cc2c(s1)-c1c(cc(F)c(F)c1F)N(C(=O)c1ccc(NC(=O)c3cccnc3N3CC4(CCOCC4)C3)cc1)CC2` [Example 79], the EC50 was in the range of 10 to 50 nM.

Take `O=C(Nc1c(F)cccc1Cl)c1cc2c(s1)-c1c(cc(F)c(F)c1F)N(C(=O)c1ccc(NC(=O)c3cccnc3N3CC4(CCOCC4)C3)cc1)CC2` [Example 80]: the EC50 is 10 to 50 nM.

With `O=C(Nc1c(F)cc(F)cc1Cl)c1cc2c(s1)-c1c(cc(F)c(F)c1F)N(C(=O)c1ccc(NC(=O)c3cccnc3N3CC4(CCOCC4)C3)cc1)CC2` [Example 81], the EC50 fell in the range of 10 to 50 nM.

For the molecule `O=C(Nc1ccc(C(=O)N2CCc3cc(-c4nc5ccccc5[nH]4)sc3-c3ccc(Cl)cc32)cc1)c1cccnc1N1CC2(CCOCC2)C1` [Example 82], the EC50 was in the range of 10 to 50 nM.

`O=C(Nc1c(F)cccc1F)c1cc2c(s1)-c1ccc(Cl)cc1N(C(=O)c1ccc(NC(=O)c3cccnc3N3CC4(CCOCC4)C3)cc1)CC2` [Example 83]: the EC50 was less than 10 nM.

`O=C(Nc1c(F)cc(F)cc1Cl)c1cc2c(s1)-c1ccc(Cl)cc1N(C(=O)c1ccc(NC(=O)c3cccnc3N3CC4(CCOCC4)C3)cc1)CC2` [Example 84]: the EC50 fell in the range of 10 to 50 nM.

`Cc1cccc(F)c1NC(=O)c1cc2c(s1)-c1ccc(C(F)(F)F)cc1N(C(=O)c1ccc(NC(=O)c3cccnc3N3CC4(CCOCC4)C3)cc1)CC2` [Example 85]: the EC50 is more than 50 nM.

Turning to `O=C(Nc1ccc(C(=O)N2CCc3cc(-c4nc5ccccc5[nH]4)sc3-c3ccc(C(F)(F)F)cc32)cc1)c1cccnc1N1CC2(CCOCC2)C1` [Example 86], the EC50 is more than 50 nM.

Turning to `O=C(Nc1c(F)cccc1F)c1cc2c(s1)-c1cc(C(F)(F)F)ccc1N(C(=O)c1ccc(NC(=O)c3cccnc3N3CC4(CCOCC4)C3)cc1)CC2` [Example 87], the EC50 was 10 to 50 nM.

Consider `O=C(Nc1ccc(C(=O)N2CCc3c(sc(C(=O)Nc4c(F)cccc4F)c3F)-c3ccccc32)cc1)c1cccnc1N1CC2(CCOCC2)C1` [Example 88], for which the EC50 is less than 10 nM.
